Experimental data reported in ChEMBL document CHEMBL1138248, “Synthesis and in vitro antiprotozoal activity of bisbenzofuran cations” (J Med Chem, 2007).

What was measured:
[1] = test system: L6; assay: Cytotoxicity against rat L6 cells
[2] = test system: Trypanosoma brucei rhodesiense; assay: Antitrypanosomal activity against Trypanosoma brucei rhodesiense STIB900; format: functional, organism-based
[3] = test system: Leishmania donovani; assay: […] activity against Leishmania donovani (MHOM/SD/62/1S-CL2D) axenic amastigotes; format: functional, organism-based
[4] = test system: Plasmodium falciparum; assay: microbe, parasite or virus in culture; conditions: K1
Description: Antimalarial activity against chloroquine-resistant Plasmodium falciparum K1

SMILES: N=C(N)c1ccc2oc(CCc3cc4cc(C(=N)N)ccc4o3)cc2c1
- IC50 [1]: 21.5 µM
- IC50 [2]: 8 nM
- IC50 [3]: 1060 nM
- IC50 [4]: 3 nM

SMILES: C[C@@H]1CC[C@H]2[C@@H](C)C(=O)O[C@@H]3O[C@@]4(C)CC[C@@H]1[C@]32OO4 [ARTEMISININ]
- IC50 [4]: 6 nM

SMILES: CCN(CC)CCCC(C)Nc1ccnc2cc(Cl)ccc12 (stereo not drawn) [CHLOROQUINE]
- IC50 [1]: 117 µM

SMILES: N=C(N)c1ccc(OCCCCCOc2ccc(C(=N)N)cc2)cc1 [PENTAMIDINE]
- IC50 [3]: 1830 nM

SMILES: COc1cc([C@@H]2c3cc4c(cc3[C@H](O)[C@H]3COC(=O)[C@H]23)OCO4)cc(OC)c1OC [PODOFILOX]
- IC50 [1]: 0.01 µM
